In test [1] the target is T1, CD73 (Homo sapiens (Human), UniProt P21589). As to the kind of experiment: MDA-MB-231 Cell Based CD73 Activity Assay (DMEM). Particulars: MDA-MB-231-GFP cells, DMEM medium with 10% human plasma, 200 uM AMP.
For test [2], the target named is T1, CD73. In kind it is biochemical. Particulars: 1 mM NaH2PO4 in enzyme buffer, CD73 0.3 nM, AMP 15 uM.

T1 sequence (P21589 27-574): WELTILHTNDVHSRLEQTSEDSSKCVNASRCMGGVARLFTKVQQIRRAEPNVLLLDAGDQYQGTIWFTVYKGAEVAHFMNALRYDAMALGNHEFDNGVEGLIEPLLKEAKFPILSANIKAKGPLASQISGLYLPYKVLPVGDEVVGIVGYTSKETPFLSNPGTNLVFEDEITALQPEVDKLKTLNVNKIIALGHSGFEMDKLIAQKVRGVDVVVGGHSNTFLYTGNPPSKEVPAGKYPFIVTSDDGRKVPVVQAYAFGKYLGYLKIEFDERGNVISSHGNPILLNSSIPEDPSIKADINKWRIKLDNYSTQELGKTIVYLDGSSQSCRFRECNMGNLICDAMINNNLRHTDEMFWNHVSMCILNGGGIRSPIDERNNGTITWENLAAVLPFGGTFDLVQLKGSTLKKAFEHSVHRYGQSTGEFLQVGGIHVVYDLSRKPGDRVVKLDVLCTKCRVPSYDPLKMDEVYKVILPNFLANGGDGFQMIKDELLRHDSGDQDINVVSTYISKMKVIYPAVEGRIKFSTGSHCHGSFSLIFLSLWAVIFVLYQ

On to `O=c1[nH]cc(-c2cc([C@H]3C[C@@H]3c3cc4c(cn3)c(F)cn4CC(F)(F)F)c3nccn3n2)c(=O)[nH]1` [Example 392, 5-(8-((1S,2S)-2-(3-fluoro-1-(2,2,2-trifluoroethyl)-1H-pyrrolo[3,2-c]pyridin-6-yl)cyclopropyl)imidazo[1,2-b]pyridazin-6-yl)pyrimidine-2,4(1H,3H)-dione], for which the midpoint of the response at CD73 [1], the EC50, lay at 0.34 nM. The IC50 at CD73 [2] was 1.25 nM.
Compound `O=c1[nH]cc(-c2cc([C@H]3C[C@@H]3c3ccc4c(F)nn(CC(F)(F)F)c4c3)c3nccn3n2)c(=O)[nH]1` [Example 393, 5-(8-((1S,2S)-2-(3-fluoro-1-(2,2,2-trifluoroethyl)-1H-indazol-6-yl)cyclopropyl)imidazo[1,2-b]pyridazin-6-yl)pyrimidine-2,4(1H,3H)-dione] yielded a 50% effective concentration (EC50) on CD73 [1] of 0.16 nM. On CD73 [2], this compound showed a 50% inhibitory concentration (IC50) of 0.74 nM.
Consider `O=c1[nH]cc(-c2cc([C@H]3C[C@@H]3c3cc(C(F)(F)F)c4cccnc4c3)c3nccn3n2)c(=O)[nH]1` [Example 394, 5-(8-((1S,2S)-2-(5-(trifluoromethyl)quinolin-7-yl)cyclopropyl)imidazo[1,2-b]pyridazin-6-yl)pyrimidine-2,4(1H,3H)-dione], for which the EC50 on CD73 [1] was > 250 nM. Inhibition at CD73 [2] was half-maximal at 5.94 nM (IC50).
On CD73 [1], `O=c1[nH]cc(-c2cc([C@H]3C[C@@H]3c3cnc4c(C(F)(F)F)cccc4c3)c3nccn3n2)c(=O)[nH]1` [Example 395, 5-(8-((1S,2S)-2-(8-(trifluoromethyl)quinolin-3-yl)cyclopropyl)imidazo[1,2-b]pyridazin-6-yl)pyrimidine-2,4(1H,3H)-dione] returned an EC50 of 29.9 nM. This compound also registered an IC50 on CD73 [2] of 2.1 nM.
On CD73 [1], `O=c1[nH]cc(-c2cc(N3CC(F)(C(F)(F)F)C3)c3nccn3n2)c(=O)[nH]1` [Example 397, 5-(8-(3-fluoro-3-(trifluoromethyl)azetidin-1-yl)imidazo[1,2-b]pyridazin-6-yl)pyrimidine-2,4(1H,3H)-dione] yielded a half-maximal effective concentration (EC50) of 22.5 nM. At CD73 [2], it took 15.3 nM to reach half-maximal inhibition (IC50).
`O=c1[nH]cc(-c2cc(N3CC4(CCC4)C3)c3nccn3n2)c(=O)[nH]1` [Example 398, 5-(8-(2-azaspiro[3.3]heptan-2-yl)imidazo[1,2-b]pyridazin-6-yl)pyrimidine-2,4(1H,3H)-dione] registered an EC50 at CD73 [1] of 29.5 nM. Further, at CD73 [2], the IC50 stood at 17.1 nM.
In turn, `CC1(C(F)F)CN(c2cc(-c3c[nH]c(=O)[nH]c3=O)nn3ccnc23)C1` [Example 399, 5-(8-(3-(difluoromethyl)-3-methylazetidin-1-yl)imidazo[1,2-b]pyridazin-6-yl)pyrimidine-2,4(1H,3H)-dione] showed an EC50 on CD73 [1] of 27 nM. In addition, on CD73 [2], the midpoint of inhibition, the IC50, lay at 12.2 nM.
Take `O=c1[nH]cc(-c2cc(N3CC(C4CC4(F)F)C3)c3nccn3n2)c(=O)[nH]1` (centres unmarked) [Example 400, 5-(8-(3-(2,2-difluorocyclopropyl)azetidin-1-yl)imidazo[1,2-b]pyridazin-6-yl)pyrimidine-2,4(1H,3H)-dione]: at CD73 [1], the EC50 was 547 nM. Besides, the IC50 at CD73 [2] came to 207 nM.
Take `O=c1[nH]cc(-c2cc(N3CC(C4CCC4)C3)c3nccn3n2)c(=O)[nH]1` [Example 401, 5-(8-(3-cyclobutylazetidin-1-yl)imidazo[1,2-b]pyridazin-6-yl)pyrimidine-2,4(1H,3H)-dione]: the EC50 at CD73 [1] worked out at 53 nM. On CD73 [2], this compound had a 50% inhibitory concentration (IC50) of 12.6 nM.
With `O=c1[nH]cc(-c2cc(N3CC(F)(C(F)(F)F)C3)n3ncnc3n2)c(=O)[nH]1` [Example 402, 5-(7-(3-fluoro-3-(trifluoromethyl)azetidin-1-yl)-[1,2,4]triazolo[1,5-a]pyrimidin-5-yl)pyrimidine-2,4(1H,3H)-dione], a half-maximal response on CD73 [1] (EC50) required 136 nM. The IC50 against CD73 [2] was 53.2 nM.
With `O=c1[nH]cc(-c2cc(N3CC(C(F)F)C3)c3nccn3n2)c(=O)[nH]1` [Example 403, 5-(8-(3-(difluoromethyl)azetidin-1-yl)imidazo[1,2-b]pyridazin-6-yl)pyrimidine-2,4(1H,3H)-dione], at CD73 [1], the EC50 stood at 28.5 nM. Also, the IC50 against CD73 [2] is 8.94 nM.
At CD73 [1], `O=c1[nH]cc(-c2cc(N3CC(C4CC4)C3)c3nccn3n2)c(=O)[nH]1` [Example 404, 5-(8-(3-cyclopropylazetidin-1-yl)imidazo[1,2-b]pyridazin-6-yl)pyrimidine-2,4(1H,3H)-dione] registered an EC50 of 77.6 nM. This compound also had a 50% inhibitory concentration (IC50) on CD73 [2] of 22.9 nM.
`O=c1[nH]cc(-c2cc(N3CC4(CCC4(F)F)C3)c3nccn3n2)c(=O)[nH]1` [Example 405, 5-(8-(5,5-difluoro-2-azaspiro[3.3]heptan-2-yl)imidazo[1,2-b]pyridazin-6-yl)pyrimidine-2,4(1H,3H)-dione] showed a 50% effective concentration (EC50) at CD73 [1] of 21.6 nM. The compound also came in with an IC50 at CD73 [2] of 8.3 nM.
For `O=c1[nH]cc(-c2cc(N3CC4(C3)CC4(F)F)c3nccn3n2)c(=O)[nH]1` [Example 406, 5-(8-(1,1-difluoro-5-azaspiro[2.3]hexan-5-yl)imidazo[1,2-b]pyridazin-6-yl)pyrimidine-2,4(1H,3H)-dione], the EC50 on CD73 [1] was determined as 98.2 nM. For the same compound, the concentration for half-maximal inhibition (IC50) against CD73 [2] turned out to be 25.6 nM.
For `CC(C)(F)C1CN(c2cc(-c3c[nH]c(=O)[nH]c3=O)nn3ccnc23)C1` [Example 409, 5-(8-(3-(2-fluoropropan-2-yl)azetidin-1-yl)imidazo[1,2-b]pyridazin-6-yl)pyrimidine-2,4(1H,3H)-dione] the same measures were 37.8 nM and 10.7 nM.
In turn, `O=c1[nH]cc(-c2cc(C3CCOCC3)c3nccn3n2)c(=O)[nH]1` [Example 410, 5-(8-(tetrahydro-2H-pyran-4-yl)imidazo[1,2-b]pyridazin-6-yl)pyrimidine-2,4(1H,3H)-dione] registered an EC50 at CD73 [1] of 928 nM. Moreover, at CD73 [2], half-maximal inhibition (IC50) required 817 nM.
`N#Cc1ccc([C@H]2C[C@@H]2c2cc(-c3c[nH]c(=O)[nH]c3=O)nn3c(F)cnc23)cc1F` [Example 415, 4-((1S,2S)-2-(6-(2,4-dioxo-1,2,3,4-tetrahydropyrimidin-5-yl)-3-fluoroimidazo[1,2-b]pyridazin-8-yl)cyclopropyl)-2-fluorobenzonitrile]: at CD73 [1], the concentration for a half-maximal effect (EC50) is 3.93 nM. The same compound gave an IC50 at CD73 [2] of 0.79 nM.
As for `O=c1[nH]cc(-c2cc([C@H]3C[C@@H]3c3ccc(C(F)F)cc3)c3nccn3n2)c(=O)[nH]1` [Example 418, 5-(8-((1S,2S)-2-(4-(difluoromethyl)phenyl)cyclopropyl)imidazo[1,2-b]pyridazin-6-yl)pyrimidine-2,4(1H,3H)-dione], the EC50 at CD73 [1] turned out to be 4.71 nM. Further, the midpoint of inhibition on CD73 [2], the IC50, lay at 0.96 nM.
Take `O=c1[nH]cc(-c2cc([C@H]3C[C@@H]3c3ccc(C(F)F)cc3)c3ncc(F)n3n2)c(=O)[nH]1` [Example 419, 5-(8-((1S,2S)-2-(4-(difluoromethyl)phenyl)cyclopropyl)-3-fluoroimidazo[1,2-b]pyridazin-6-yl)pyrimidine-2,4(1H,3H)-dione]: on CD73 [1], the EC50 was determined as 8.9 nM. Further, at CD73 [2], the 50% inhibitory concentration (IC50) was 1.23 nM.
For `CC1(C)CN(c2cc(-c3c[nH]c(=O)[nH]c3=O)nc3ncnn23)CC1(F)F` [Example 420, 5-(7-(3,3-difluoro-4,4-dimethylpyrrolidin-1-yl)-[1,2,4]triazolo[1,5-a]pyrimidin-5-yl)pyrimidine-2,4(1H,3H)-dione] the same measures were 13.7 nM and 4.87 nM.
`CC1(C)CN(c2cc(-c3c[nH]c(=O)[nH]c3=O)nc3nccn23)CC1(F)F` [Example 421, 5-(5-(3,3-difluoro-4,4-dimethylpyrrolidin-1-yl)imidazo[1,2-a]pyrimidin-7-yl)pyrimidine-2,4(1H,3H)-dione] yielded a half-maximal effective concentration (EC50) at CD73 [1] of 65.1 nM. The IC50 against CD73 [2] was 31 nM.
For `Cc1nc2c(N3CC(C)(C)C(F)(F)C3)cc(-c3c[nH]c(=O)[nH]c3=O)nn2c1F` [Example 422, 5-(8-(3,3-difluoro-4,4-dimethylpyrrolidin-1-yl)-3-fluoro-2-methylimidazo[1,2-b]pyridazin-6-yl)pyrimidine-2,4(1H,3H)-dione] the same measures were 155 nM and 72.7 nM.
Take `O=c1[nH]cc(-c2cc(N3CC(F)(CO)C3)c3nccn3n2)c(=O)[nH]1` [Example 423, 5-(8-(3-fluoro-3-(hydroxymethyl)azetidin-1-yl)imidazo[1,2-b]pyridazin-6-yl)pyrimidine-2,4(1H,3H)-dione]: the EC50 at CD73 [1] was found to be 76.4 nM. Also, inhibition at CD73 [2] was half-maximal at 39.2 nM (IC50).
In the case of `N#Cc1cc(F)c([C@H]2C[C@@H]2c2cc(-c3c[nH]c(=O)[nH]c3=O)nn3ccnc23)c(F)c1` [Example 424, 4-((1S,2S)-2-(6-(2,4-dioxo-1,2,3,4-tetrahydropyrimidin-5-yl)imidazo[1,2-b]pyridazin-8-yl)cyclopropyl)-3,5-difluorobenzonitrile], it took 4.1 nM to reach a half-maximal effect at CD73 [1] (EC50). Also, at CD73 [2], the IC50 was 1.64 nM.
In the case of `N#Cc1cc(F)c([C@H]2C[C@@H]2c2cc(-c3c[nH]c(=O)[nH]c3=O)nn3c(F)cnc23)c(F)c1` [Example 425, 4-((1S,2S)-2-(6-(2,4-dioxo-1,2,3,4-tetrahydropyrimidin-5-yl)-3-fluoroimidazo[1,2-b]pyridazin-8-yl)cyclopropyl)-3,5-difluorobenzonitrile], the EC50 at CD73 [1] turned out to be 5.63 nM. For the same compound, at CD73 [2], the IC50 was 1.63 nM.
With `CC1(C)CN(c2cc(-c3c[nH]c(=O)[nH]c3=O)nn3ncnc23)CC1(F)F` [Example 426, 5-(8-(3,3-difluoro-4,4-dimethylpyrrolidin-1-yl)-[1,2,4]triazolo[1,5-b]pyridazin-6-yl)pyrimidine-2,4(1H,3H)-dione], the EC50 on CD73 [1] amounted to 4.5 nM. The midpoint of inhibition against CD73 [2], the IC50, lay at 0.23 nM.
For `O=c1[nH]cc(-c2cc([C@H]3C[C@@H]3c3ccc(C(F)(F)F)cc3)c3ncnn3n2)c(=O)[nH]1` [Example 427, 5-(8-((1S,2S)-2-(4-(trifluoromethyl)phenyl)cyclopropyl)-[1,2,4]triazolo[1,5-b]pyridazin-6-yl)pyrimidine-2,4(1H,3H)-dione] the same measures were 7.4 nM and 0.48 nM.
For the compound `N#Cc1cc(F)c([C@H]2C[C@@H]2c2cc(-c3c[nH]c(=O)[nH]c3=O)nn3ncnc23)c(F)c1` [Example 428, 4-((1S,2S)-2-(6-(2,4-dioxo-1,2,3,4-tetrahydropyrimidin-5-yl)-[1,2,4]triazolo[1,5-b]pyridazin-8-yl)cyclopropyl)-3,5-difluorobenzonitrile], a half-maximal response on CD73 [1] (EC50) required 14.7 nM. Moreover, at CD73 [2], the half-inhibitory concentration (IC50) stood at 1.38 nM.

One may read the EC50 as the concentration giving half of the maximal effect. Lower therefore signals greater potency. For orientation: IC50 means the point on the concentration scale where inhibition reaches its midpoint.

The record behind these values is patent US20240043427A1 (Gilead Sciences, Inc., priority 2020, published 2024).
